# Laboratory results taken from patent US4719235A, “Methods and compositions for treating viral infection” (Kern; Gerald N., priority 1985, dated 1988).
# Key:
# HSV-2 = experiment: Titration of HSV-2 after contact with docusate sodium solutions containing 10% fetal calf serum; format: cell-based, Herpes Simplex Type 2
# Coxsackievirus B-5 = experiment: Titration of Coxsackievirus B-5 after contact with docusate sodium solutions; format: cell-based; details: 0.2 mg/ml
# Adenovirus [1] = experiment: Titration of Adenovirus after contact with docusate sodium solutions (HeLa cells); format: cell-based; details: 0.2 mg/ml
# [2] = Cytotoxicity in solutions free of serum, foreskin fibroblasts; format: cell-based, human; set-up: key to Foreskin (toxicity): 0: Cells had normal morphology; 4+: >90% of cells showed CTE; details: human, foreskin fibroblasts, 0.2 mg/ml, 37° C., read-out: Foreskin (toxicity)
# Protocol: (§1) The cell lines used to evaluate cytotoxicity of docusate sodium were MA-104 derived from monkey kidneys, HeLa derived from human uterine carcinoma and primary fibroblasts from human foreskin. The cells were grown to confluency in 60×15 mm dishes. The cell monolayers were washed free of growth medium and 5 ml of serum-less growth medium containing docusate sodium at various concentrations was added. The curtures were incubated 24 hours at 37° C. and the cells then examined microscopically for cytotoxic effects (CTE). Controls were done in the same manner except that they were not exposed to docusate sodium.
# [3] = tested on: primary fibroblasts from human foreskin; experiment: as above; format: cell-based; set-up: key to Foreskin (toxicity): 0: Cells had normal morphology; 4+: >90% of cells showed CTE; details: 24 hours, 37° C.
# Protocol: as §1
# [4] = tested on: primary fibroblasts from human foreskin; experiment: Cytotoxicity in solutions containing serum, foreskin fibroblasts; format: cell-based; set-up: key to Foreskin (Cytotoxic effect): 0: Cells have normal morphology; 4+: >90% of cells showed CTE.; ±c: less than 10% of cells showed CTE; details: 0.01 mg/ml, 2% fetal calf serum, 24 hours, 37° C.
# Protocol: The cells were grown to confluency in 60×15 mm dishes. The cell monolayers were washed free of growth medium and 5 ml of serum-less growth medium containing docusate sodium at various concentrations was added. The curtures were incubated 24 hours at 37° C. and the cells then examined microscopically for cytotoxic effects (CTE). Controls were done in the same manner except that they were not exposed to docusate sodium.
# The same procedure that was used for Example 17 was used for this Example except that the medium used for growing the cells contained 2% by volume fetal calf serum.
# Rotavirus = experiment: microbe, parasite or virus in culture; format: cell-based; details: MA104, 0.25 h, pretreatment 15 minutes, read-out: % decrease in pfu
# Adenovirus [5] = experiment: Pretreatment of HeLa cells prior to exposure to Adenovirus; format: cell-based; details: 0.125 mg/ml in 10% fetal calf serum MEM
# Protocol: HeLa cells were washed free of growth medium and the cells were exposed to 0.125 mg/ml docusate sodium in 10% fetal calf serum MEM for 15 minutes. The docusate sodium solution was poured off, the cells rinsed with phosphate buffered saline and then exposed to appropriately diluted Adenovirus. A control solution prepared as above except for exposure to docusate sodium was also provided. After one hour at 37° C., the cells were overlayed with agar and incubated for 3 days at 37° C. to allow plaques to develop.
# herpes virus = experiment: Recovery of herpes virus from a contaminated surface (glass slides; plaques on MA-104 cells); format: cell-based
# [6] = tested on: selected cell lines (MA-104, HeLa, Foreskin)
# Influenza A virus = experiment: Pretreatment of MDCK cells prior to exposure to Influenza A virus; details: 0.1 mg/ml
# Protocol: Virus infectivity was determined by cytopathic effects (CPE).
# The same procedure was used for this example as was used for Example 24 except that MDCK cells were substituted for HeLa cells and Influenza A virus was substituted for Respiratory Syncytial Virus. Two experiments were run.
compound,measurement,setting,value
"CCCCC(CC)COC(=O)CC(C(=O)OCC(CC)CCCC)S(=O)(=O)O (stereo not shown) [docusate sodium, 1,4-bis(2-ethylhexyl)sodium sulfosuccinate]",concentration required for a given percentage of HSV-2 inactivation (conclusion),HSV-2; 10% fetal calf serum vs serum absent,higher concentrations of docusate sodium were required
same,killing at 10 µg/mL,"HSV-2; Human alphaherpesvirus 2, 0.25 h, 0.01 mg/ml, 10% fetal calf serum, 15 min, 37° C., read-out: % Inactivation of HSV-2",10%
same,killing at 100 µg/mL,"HSV-2; Human alphaherpesvirus 2, 0.25 h, 0.1 mg/ml, 10% fetal calf serum, 15 min, 37° C., read-out: % Inactivation of HSV-2",10%
same,killing at 200 µg/mL,"HSV-2; Human alphaherpesvirus 2, 0.25 h, 0.2 mg/ml, 10% fetal calf serum, 15 min, 37° C., read-out: % Inactivation of HSV-2",95%
same,inactivation of Coxsackievirus B-5 (conclusion),Coxsackievirus B-5,did not inactivate Coxsackievirus B-5
same,pfu/ml,"Coxsackievirus B-5; exposure time 0 minutes (control 30,000)","12,500 pfu/ml"
same,pfu/ml,Coxsackievirus B-5; exposure time 15 minutes,"23,000 pfu/ml"
same,pfu/ml,"Coxsackievirus B-5; exposure time 60 minutes (control 25,500)","30,000 pfu/ml"
same,effect on Adenovirus replication (conclusion),Adenovirus [1]; contact time 60 minutes,did not have a significant effect on Adenovirus replication
same,pfu/ml,"Adenovirus [1]; exposure time 60 minutes (control 180,000)","150,000 pfu/ml"
same,killing at 200 µg/mL,"Adenovirus [1]; unidentified adenovirus, HeLa, 1 h, exposure time 60 minutes, read-out: % Inactivation",17%
same,cytotoxicity at 24 h,[2],> 90%
same,Foreskin (toxicity),[3]; 0.01 mg/ml,0
same,Foreskin (toxicity),[3]; 0.05 mg/ml,4+ (>90% of cells showed CTE.)
same,Foreskin (toxicity),[3]; 0.1 mg/ml,4+ (>90% of cells showed CTE.)
same,Foreskin (Cytotoxic effect),[4],0
same,inhibition at 40 µg/mL,Rotavirus; 0.04 mg/ml,10%
same,inhibition at 50 µg/mL,Rotavirus; 0.05 mg/ml,70%
same,plaque forming units/ml,"Adenovirus [5]; pretreatment 15 minutes (control 180,000)","175,000 pfu/ml"
same,inhibition at 125 µg/mL,"Adenovirus [5]; unidentified adenovirus, HeLa, 0.25 h, pretreatment 15 minutes, read-out: % decrease in pfu",3%
same,plaque forming units,"herpes virus; 0.4% in phosphate buffered saline (control 41,250; control smear 13,500)",0 plaque forming units
same,recovery of viruses (conclusion),herpes virus; smears scrubbed off with 0.4% solution,no viruses were recovered
same,effect of serum on cytotoxicity (conclusion),[6],presence of serum reduced the cytotoxicity
same,relative sensitivity of cell lines (conclusion),[6],MA-104 cells were less sensitive to docusate sodium than were HeLa and foreskin fibroblast cells
same,Presence of CPE,"Influenza A virus; experiment 1, virus dilution 10^-1 (control +)",-
same,Presence of CPE,"Influenza A virus; experiment 1, virus dilution 10^-2 (control +)",-
same,Presence of CPE,"Influenza A virus; experiment 1, virus dilution 10^-3 (control -)",-
same,Presence of CPE,"Influenza A virus; experiment 1, virus dilution 10^-4 (control -)",-
same,Presence of CPE,"Influenza A virus; experiment 2, virus dilution 10^-2 (control +)",-
same,Presence of CPE,"Influenza A virus; experiment 2, virus dilution 10^-3 (control -)",-
same,Presence of CPE,"Influenza A virus; experiment 2, virus dilution 10^-4 (control -)",-
